Target: T1, AURKA (Homo sapiens, UniProt O14965)
T1 construct: An MDA-MB-231 cell line was purchased from the Korea Cell Line Bank; endogenous in cells; host or cells: MDA-MB-231
T1 sequence (O14965 1-403): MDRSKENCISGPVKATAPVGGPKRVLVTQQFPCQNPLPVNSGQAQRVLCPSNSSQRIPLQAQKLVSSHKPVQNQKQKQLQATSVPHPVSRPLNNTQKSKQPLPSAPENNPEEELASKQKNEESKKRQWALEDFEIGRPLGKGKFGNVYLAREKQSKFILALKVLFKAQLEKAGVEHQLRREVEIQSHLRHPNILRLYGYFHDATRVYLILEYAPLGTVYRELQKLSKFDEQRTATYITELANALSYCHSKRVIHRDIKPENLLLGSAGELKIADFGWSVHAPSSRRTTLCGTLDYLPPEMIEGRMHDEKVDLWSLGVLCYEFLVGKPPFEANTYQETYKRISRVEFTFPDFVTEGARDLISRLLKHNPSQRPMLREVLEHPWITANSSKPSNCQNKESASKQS
Experiment: Western blotting of AURKA degradation after 24 hours of compound treatment of MDA-MB-231 cell line
Type: cell-based
Conditions: compound 0.1 μM, MDA-MB-231 cells, Western blot
Excerpt: An MDA-MB-231 cell line was purchased from the Korea Cell Line Bank. The passage of cultured cells was maintained within P50.
For cell counting, a cell counter (Catalog #AMQAX1000) from Thermo and a 0.4% Trypan blue solution were used.
For cell culture, there were used RPMI (Gibco, Cat. No. 22400-089; Lot. No. 2323633), FBS (Gibco, Cat. No. 16000044; Lot. No. 2454168P), Penicillin/Streptomycin (PS) (Gibco, Cat. No. 15140-122; Lot. No. 2321150), 100 mm culture plate (SPL, Cat. No. 20100), 6-well culture plate (SPL, Cat. No. 30006), PBS pH7.4 (Gibco, Cat. No. 10010-023; Lot. No. 2380329), counting chamber (Hematocytometer) (Hirschmann, Cat. No. 8100204), and 0.4% trypan blue solution (DYNEBIO, Cat. No. CBT3710; Lot. No. 20211201).
3×10^5 cells were seeded in each well of a 12-well plate (SPL), and the cells were cultured in a total culture medium volume of 1 mL. […]
Next, a standard curve was obtained using the BCA assay and the protein mass in the lysate was quantified by substituting the obtained standard curve. The mixture was incubated at 37° C. for 30 minutes using 20 μL of a standard or sample solution and 200 μL of a BCA or Bradford solution, and absorbance was measured at 562 nm. […]

AURKA protein degradation activity: ≥ 95%
SMILES: O=C1CCC(N2C(=O)c3cccc(NCCCCCCN4CCN(C(=O)Cc5ccc(Nc6ncc(F)c(Nc7ccc(C(=O)Nc8ccccc8Cl)cc7)n6)cc5)CC4)c3C2=O)C(=O)N1 (stereo not shown) [Compound 14]
